Results published in publication PMC2752819 (Assay and drug development technologies, 2008).
Read-outs that look alike come from different tables or passages of the source.

Key:
[1] = target: T1, MKP-1 (Homo sapiens, UniProt P28562); experiment: biochemical
T1 sequence (P28562 1-367): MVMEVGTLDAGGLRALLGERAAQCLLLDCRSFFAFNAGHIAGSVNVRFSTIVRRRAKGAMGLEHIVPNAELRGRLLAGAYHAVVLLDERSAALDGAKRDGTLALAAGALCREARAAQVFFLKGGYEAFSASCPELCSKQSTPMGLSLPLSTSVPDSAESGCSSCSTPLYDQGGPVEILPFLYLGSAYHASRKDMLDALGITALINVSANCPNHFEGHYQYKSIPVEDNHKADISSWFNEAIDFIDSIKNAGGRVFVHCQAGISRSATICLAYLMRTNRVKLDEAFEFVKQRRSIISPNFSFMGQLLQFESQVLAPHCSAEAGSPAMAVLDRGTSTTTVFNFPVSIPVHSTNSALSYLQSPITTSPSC

[2] = cited from earlier work
[3] = MKP-1 + 1 mM DTT + catalase IC50, 1 mM DTT + 100 U of catalase
[4] = MKP-1 + 25 mM DTT IC50, 25 mM DTT
[5] = read-out: MKP-1 + 1 mM DTT % inhibition at 50 μM
[6] = read-out: MKP-1 + 1 mM DTT + catalase % inhibition at 50 μM
[7] = read-out: MKP-1 + 25 mM DTT % inhibition at 50 μM

CCn1nc(-c2cccs2)nc2c(=O)n(C)c(=O)nc1-2 [compound 850758, 1-ethyl-6-methyl-3-thiophen-2-ylpyrimido[5,6-e][1,2,4]triazine-5,7-dione]
IC50 [1, 3]: > 50 µM | IC50 [1, 4]: 4.43 µM | inhibition at 50 µM [1, 5]: 94.4% | inhibition at 50 µM [1, 6]: -92.2% | inhibition at 50 µM [1, 7]: 98.2%

CCCCn1c(NC(=O)c2ccccc2)c(C#N)c2nc3ccccc3nc21 [compound 3712327, N-(1-butyl-3-cyanopyrrolo[5,4-b]quinoxalin-2-yl)benzamide]
IC50 [1, 4]: > 50 µM | inhibition at 50 µM [1, 5]: 79.9% | inhibition at 50 µM [1, 6]: 69.9% | inhibition at 50 µM [1, 7]: -5.25%

O=C1C(=O)c2ccccc2-c2ccccc21 [9,10-phenanthrenedione]
H2O2 generation in the presence of DTT [2]: generate significant amounts of H2O2

N#Cc1c(N)sc(=S)c2c1CCN(Cc1ccccc1)C2 [compound 845964, 3-amino-7-(phenylmethyl)-1-sulfanylidene-6,8-dihydro-5H-thiopyrano[5,4-c]pyridine-4-carbonitrile]
IC50 [1, 3]: > 50 µM | IC50 [1, 4]: > 50 µM | inhibition at 50 µM [1, 5]: 95.2% | inhibition at 50 µM [1, 6]: 47.7% | inhibition at 50 µM [1, 7]: 35.7%

CCn1nc(-c2ccccc2)nc2c(=O)n(C)c(=O)nc1-2 [compound 845167, 1-ethyl-6-methyl-3-phenylpyrimido[5,6-e][1,2,4]triazine-5,7-dione]
IC50 [1, 3]: > 50 µM | IC50 [1, 4]: 4.9 µM | inhibition at 50 µM [1, 5]: 95.6% | inhibition at 50 µM [1, 6]: -66.3% | inhibition at 50 µM [1, 7]: 96.2%

Cn1ncnc2c(=O)n(C)c(=O)nc1-2 [compound 4251194, 1,6-dimethylpyrimido[5,6-e][1,2,4]triazine-5,7-dione]
IC50 [1, 3]: > 50 µM | IC50 [1, 4]: 5.68 µM | inhibition at 50 µM [1, 5]: 94.4% | inhibition at 50 µM [1, 6]: -27.2% | inhibition at 50 µM [1, 7]: 98%
